Source: ChEMBL document CHEMBL1150530, “Thromboxane receptor antagonism combined with thromboxane synthase inhibition. 6. 4-substituted 3-pyridinylalkanoic acids” (Bioorg Med Chem Lett, 1992)

Species on record: Homo sapiens
Assay: Inhibitory concentration against U 46619 induced aggregation of human platelet rich plasma(PRP); IA=Inactive; call rule not given here
Format: functional

IC50	SMILES
Not Active	O=C(O)CCCCCCc1cnccc1NS(=O)(=O)c1ccc(Cl)cc1

Molecular target: T1, Thromboxane-A synthase (Homo sapiens, UniProt P24557)
T1 sequence (P24557 whole entry): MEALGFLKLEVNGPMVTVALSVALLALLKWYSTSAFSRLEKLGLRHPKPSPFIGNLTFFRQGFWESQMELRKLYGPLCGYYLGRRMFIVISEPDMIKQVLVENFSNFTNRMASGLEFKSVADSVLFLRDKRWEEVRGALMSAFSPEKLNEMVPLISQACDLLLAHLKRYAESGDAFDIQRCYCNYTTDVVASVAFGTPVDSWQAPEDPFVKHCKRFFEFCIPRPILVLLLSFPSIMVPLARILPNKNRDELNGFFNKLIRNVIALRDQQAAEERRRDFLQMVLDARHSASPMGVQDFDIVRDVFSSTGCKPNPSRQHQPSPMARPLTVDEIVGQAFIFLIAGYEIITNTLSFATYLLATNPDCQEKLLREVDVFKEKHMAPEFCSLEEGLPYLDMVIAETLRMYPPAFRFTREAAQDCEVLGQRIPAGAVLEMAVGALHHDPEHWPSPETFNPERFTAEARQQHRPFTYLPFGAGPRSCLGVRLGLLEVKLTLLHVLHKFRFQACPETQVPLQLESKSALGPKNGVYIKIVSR
Assay: Inhibitory concentration against thromboxane synthase enzyme; IA=Inactive

IC50	SMILES
Not Active	O=C(O)CCCCCCc1cnccc1NS(=O)(=O)c1ccc(Cl)cc1

Molecular target: T1, Thromboxane-A synthase
Assay: Inhibitory concentration against thromboxane synthase enzyme

SMILES	IC50
O=C(O)CCCCCc1cnccc1CCCNS(=O)(=O)c1ccc(Cl)cc1	100 nM
O=C(O)CCCCCCc1cnccc1CCNS(=O)(=O)c1ccc(Cl)cc1	80 nM

The next lines start with the values.

IC50	SMILES
66 nM	O=C(O)CCCCCc1cnccc1CNS(=O)(=O)c1ccc(Cl)cc1
15 nM	O=C(O)CCCCCCc1cnccc1CCCNS(=O)(=O)c1ccc(Cl)cc1
43 nM	O=C(O)CCCCCc1cnccc1CCNS(=O)(=O)c1ccc(Cl)cc1

Species on record: Homo sapiens
Assay: Inhibitory concentration against U 46619 induced aggregation of human washed platelets(WP)
Format: functional

SMILES	IC50
O=C(O)CCCCCc1cnccc1CCCNS(=O)(=O)c1ccc(Cl)cc1	36 nM
O=C(O)CCCCCCc1cnccc1CCNS(=O)(=O)c1ccc(Cl)cc1	94 nM

More lines, now with the values ahead:

IC50	SMILES
220 nM	O=C(O)CCCCCc1cnccc1CNS(=O)(=O)c1ccc(Cl)cc1
1440 nM	O=C(O)CCCCCCc1cnccc1CCCNS(=O)(=O)c1ccc(Cl)cc1
195 nM	O=C(O)CCCCCc1cnccc1CCNS(=O)(=O)c1ccc(Cl)cc1

Species on record: Homo sapiens
Assay: Inhibitory concentration against U 46619 induced aggregation of human washed platelets(WP); IA=Inactive
Format: functional

IC50	SMILES
Not Active	O=C(O)CCCCCCc1cnccc1NS(=O)(=O)c1ccc(Cl)cc1

Species on record: Homo sapiens
Assay: Inhibitory concentration against U 46619 induced aggregation of human platelet rich plasma(PRP)
Format: functional

SMILES	IC50
O=C(O)CCCCCc1cnccc1CCCNS(=O)(=O)c1ccc(Cl)cc1	670 nM
O=C(O)CCCCCCc1cnccc1CCNS(=O)(=O)c1ccc(Cl)cc1	440 nM

Results, then the compound that gave them:

IC50	SMILES
1080 nM	O=C(O)CCCCCc1cnccc1CNS(=O)(=O)c1ccc(Cl)cc1
7970 nM	O=C(O)CCCCCCc1cnccc1CCCNS(=O)(=O)c1ccc(Cl)cc1
610 nM	O=C(O)CCCCCc1cnccc1CCNS(=O)(=O)c1ccc(Cl)cc1
